Assay results: ChEMBL document CHEMBL1201862, “PubChem BioAssay data set” (2004)
Calls of active or inactive are those of the source.

Assays:
[1] = target: T1, E3 ubiquitin-protein ligase XIAP (Homo sapiens, UniProt P98170); test: XIAP antagonists, biochemical, IAP family, fluorescence polarization (AID 1018); assay type: functional
[2] = target: T1, E3 ubiquitin-protein ligase XIAP; test: Counter Screen using XIAP-Bir3 for Chemical Antagonists of Bir1/2 domains of IAP-family anti-apoptotic proteins. [Related pubchem assays (depositor defined):AID1018, AID1449, AID1514, AID1638, AID1749, AID1750, AID488957, AID488963]
[3] = target: T2, DNA repair protein RAD52 homolog (Homo sapiens, UniProt P43351); assay type: functional, biochemical
T2 sequence (P43351 whole entry): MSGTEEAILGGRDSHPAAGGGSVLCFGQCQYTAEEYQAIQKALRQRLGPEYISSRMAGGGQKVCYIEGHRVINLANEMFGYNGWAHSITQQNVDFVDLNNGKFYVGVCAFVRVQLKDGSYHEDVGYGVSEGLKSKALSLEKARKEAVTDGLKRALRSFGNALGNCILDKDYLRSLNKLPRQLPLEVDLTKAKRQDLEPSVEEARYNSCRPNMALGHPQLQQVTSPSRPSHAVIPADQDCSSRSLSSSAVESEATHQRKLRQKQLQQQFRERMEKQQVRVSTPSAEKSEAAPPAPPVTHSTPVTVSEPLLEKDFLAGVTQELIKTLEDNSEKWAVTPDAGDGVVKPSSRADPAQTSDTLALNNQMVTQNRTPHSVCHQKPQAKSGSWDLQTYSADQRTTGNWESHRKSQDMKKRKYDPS

[4] = target: T3, Ubiquitin-conjugating enzyme E2 N (Homo sapiens, UniProt P61088); assay type: functional
T3 sequence (P61088 whole entry): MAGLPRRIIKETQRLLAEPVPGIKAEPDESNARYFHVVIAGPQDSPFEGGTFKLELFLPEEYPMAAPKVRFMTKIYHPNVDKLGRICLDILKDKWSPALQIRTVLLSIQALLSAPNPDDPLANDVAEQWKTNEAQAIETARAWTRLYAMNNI

[5] = target: T4, Bcl-2-related protein A1 (Mus musculus, UniProt Q07440); assay type: functional;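 further: confirmatory dose–response counterscreen on Bfl-1, used to check hits from a UBC13 polyubiquitin inhibitor campaign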
T4 sequence (Q07440 whole entry): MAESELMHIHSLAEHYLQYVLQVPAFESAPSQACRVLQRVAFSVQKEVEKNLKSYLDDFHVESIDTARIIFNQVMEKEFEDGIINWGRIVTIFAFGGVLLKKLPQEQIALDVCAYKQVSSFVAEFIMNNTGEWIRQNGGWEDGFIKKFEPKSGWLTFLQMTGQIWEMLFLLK

[6] = target: T3, Ubiquitin-conjugating enzyme E2 N; assay type: functional; remark: listed apart in the source
[7] = target: Lysine-specific demethylase 4C (Homo sapiens, UniProt Q9H3R0); test: GASC-1 (JMJD2C) histone demethylase inhibitors, dose response, biochemical, DELFIA europium, cherry-picked samples (AID 488835); assay type: functional
Lysine-specific demethylase 4C, sequence (Q9H3R0 whole entry): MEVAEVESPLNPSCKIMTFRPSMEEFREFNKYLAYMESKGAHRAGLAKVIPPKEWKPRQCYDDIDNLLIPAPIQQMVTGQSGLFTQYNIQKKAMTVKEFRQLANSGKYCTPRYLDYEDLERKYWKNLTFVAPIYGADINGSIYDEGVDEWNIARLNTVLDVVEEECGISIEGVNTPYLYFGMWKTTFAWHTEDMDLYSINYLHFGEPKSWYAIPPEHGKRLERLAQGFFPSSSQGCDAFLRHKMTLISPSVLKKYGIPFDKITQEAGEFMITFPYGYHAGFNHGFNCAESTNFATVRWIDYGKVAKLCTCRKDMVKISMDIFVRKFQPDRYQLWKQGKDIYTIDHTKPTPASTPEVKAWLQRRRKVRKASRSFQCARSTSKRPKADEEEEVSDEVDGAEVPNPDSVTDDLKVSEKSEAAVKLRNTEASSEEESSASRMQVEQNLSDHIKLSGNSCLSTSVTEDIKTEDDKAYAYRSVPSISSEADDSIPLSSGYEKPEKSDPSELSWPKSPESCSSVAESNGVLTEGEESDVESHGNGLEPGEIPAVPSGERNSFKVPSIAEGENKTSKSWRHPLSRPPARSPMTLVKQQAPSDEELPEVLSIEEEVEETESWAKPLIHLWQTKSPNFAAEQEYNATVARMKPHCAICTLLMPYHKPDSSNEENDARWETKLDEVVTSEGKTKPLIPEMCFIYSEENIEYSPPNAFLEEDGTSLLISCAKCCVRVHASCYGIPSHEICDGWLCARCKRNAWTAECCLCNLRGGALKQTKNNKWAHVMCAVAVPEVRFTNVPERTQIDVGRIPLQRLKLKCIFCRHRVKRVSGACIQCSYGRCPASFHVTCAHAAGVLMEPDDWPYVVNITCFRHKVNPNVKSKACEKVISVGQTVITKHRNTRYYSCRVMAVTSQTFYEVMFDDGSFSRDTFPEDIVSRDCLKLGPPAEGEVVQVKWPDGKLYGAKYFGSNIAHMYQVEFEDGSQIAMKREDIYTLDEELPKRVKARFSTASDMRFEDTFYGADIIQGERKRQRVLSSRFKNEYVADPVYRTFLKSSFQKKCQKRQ

[8] = target: T5, Tyrosine-protein phosphatase non-receptor type 7 (Homo sapiens, UniProt P35236); assay type: functional
T5 sequence (P35236 whole entry): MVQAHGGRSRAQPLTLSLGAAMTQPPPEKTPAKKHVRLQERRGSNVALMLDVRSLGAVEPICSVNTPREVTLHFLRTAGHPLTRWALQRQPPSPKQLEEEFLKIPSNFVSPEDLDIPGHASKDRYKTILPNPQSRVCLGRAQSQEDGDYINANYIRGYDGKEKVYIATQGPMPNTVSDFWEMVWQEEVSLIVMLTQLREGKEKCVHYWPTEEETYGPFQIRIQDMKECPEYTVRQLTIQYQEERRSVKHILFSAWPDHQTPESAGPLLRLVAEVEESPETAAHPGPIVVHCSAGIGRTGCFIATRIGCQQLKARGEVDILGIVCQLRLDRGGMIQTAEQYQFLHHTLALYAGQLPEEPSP

[9] = target: T6, Tyrosine-protein phosphatase non-receptor type 22 (Homo sapiens, UniProt Q9Y2R2); assay type: functional
T6 sequence (Q9Y2R2 whole entry): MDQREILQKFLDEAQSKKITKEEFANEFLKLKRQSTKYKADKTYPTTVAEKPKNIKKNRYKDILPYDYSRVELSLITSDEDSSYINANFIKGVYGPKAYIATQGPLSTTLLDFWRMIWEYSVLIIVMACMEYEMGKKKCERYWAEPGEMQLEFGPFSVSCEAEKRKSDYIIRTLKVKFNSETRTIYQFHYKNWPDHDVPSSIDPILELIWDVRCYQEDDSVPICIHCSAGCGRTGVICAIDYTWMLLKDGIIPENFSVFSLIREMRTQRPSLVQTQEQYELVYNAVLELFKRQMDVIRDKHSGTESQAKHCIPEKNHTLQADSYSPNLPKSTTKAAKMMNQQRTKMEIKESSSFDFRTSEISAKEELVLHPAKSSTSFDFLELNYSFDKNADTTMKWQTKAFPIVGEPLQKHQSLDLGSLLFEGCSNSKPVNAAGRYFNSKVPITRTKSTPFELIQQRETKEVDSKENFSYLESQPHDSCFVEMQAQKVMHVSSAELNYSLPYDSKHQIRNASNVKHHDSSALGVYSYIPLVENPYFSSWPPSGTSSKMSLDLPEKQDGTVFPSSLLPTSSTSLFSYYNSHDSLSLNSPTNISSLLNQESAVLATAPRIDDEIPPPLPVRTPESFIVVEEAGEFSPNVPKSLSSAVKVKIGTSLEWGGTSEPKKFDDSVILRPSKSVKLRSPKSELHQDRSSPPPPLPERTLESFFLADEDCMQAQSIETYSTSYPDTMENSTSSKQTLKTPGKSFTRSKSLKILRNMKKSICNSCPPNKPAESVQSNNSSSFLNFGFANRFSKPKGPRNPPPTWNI

[10] = target: T6, Tyrosine-protein phosphatase non-receptor type 22; assay type: functional; remark: listed apart in the source

T1 sequence (P98170 whole entry): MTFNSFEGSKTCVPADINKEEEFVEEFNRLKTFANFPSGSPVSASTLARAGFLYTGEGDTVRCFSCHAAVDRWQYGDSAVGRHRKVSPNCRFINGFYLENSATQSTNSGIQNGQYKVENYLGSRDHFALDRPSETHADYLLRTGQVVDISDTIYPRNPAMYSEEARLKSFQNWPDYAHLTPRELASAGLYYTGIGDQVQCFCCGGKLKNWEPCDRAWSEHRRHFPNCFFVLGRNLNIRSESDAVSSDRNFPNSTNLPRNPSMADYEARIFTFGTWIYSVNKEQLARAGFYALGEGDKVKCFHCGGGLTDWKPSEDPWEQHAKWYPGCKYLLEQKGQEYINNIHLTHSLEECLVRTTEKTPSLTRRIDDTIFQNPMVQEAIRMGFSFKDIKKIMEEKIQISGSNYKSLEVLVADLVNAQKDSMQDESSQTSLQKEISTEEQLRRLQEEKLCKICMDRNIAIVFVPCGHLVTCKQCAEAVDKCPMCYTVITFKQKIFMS

Cc1ccsc1/C=C(\C#N)C(=O)NCc1ccco1
IC50 [1]: > 100 µM (not active) | IC50 [2]: > 100 µM (inactive)

Cc1ccc2c(c1)C(c1ccccc1)N(C(=O)c1ccc(Br)o1)CC(=O)N2 (configuration not stated)
IC50 [1]: > 100 µM (not active) | IC50 [2]: > 100 µM (inactive)

CCN(CC)CCNC(=O)c1ccc(NC(=O)c2cc(-c3ccncc3)nc3ccccc23)cc1
AC50 [3]: 20.4 µM (active) | IC50 [4]: > 20 µM (inactive) | IC50 [5]: > 20 µM (inactive) | IC50 [6]: 17 µM (active)

C=CCn1c(C)c(C=C2C(=O)NC(=O)NC2=O)c2ccccc21
AC50 [7]: 2.9 µM (active)

Cc1noc(NS(=O)(=O)c2ccc(NC(=O)c3nn(-c4ccccc4)ccc3=O)cc2)c1C
IC50 [8]: > 79.4 µM (inactive) | IC50 [9]: > 79.4 µM (inactive) | IC50 [10]: > 79.4 µM (inactive)
